Experimental findings from US9315475B2 (MERCK SHARP & DOHME CORP., priority 2011, dated 2016) are described below.

The target of assay [1] is T1, wildtype HIV-1 protease (Human immunodeficiency virus type 1 group M subtype B, UniProt P04585).
T1 construct: the wildtype HIV-1 protease (which was expressed in Escherichia coli); made in house; host or cells: Escherichia coli
In words: Assay for inhibition of microbial expressed HIV protease (Pepcleav). As to conditions: wild type HIV-1 protease expressed in E. coli, peptide substrate, pH 5.5; mean of at least two independent experiments; read-out: Pepcleav. The assay is classed as biochemical. In short, it runs like this: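 E. coli-expressed wild-type HIV-1 protease (20 pM) preincubated 30 min at room temperature with inhibitor in pH 5.5 sodium acetate/NaCl/BSA buffer, then 400 μM Val-Ser-Gln-Asn-(βnaphthyl)Ala-Pro-Ile-Val added for 1 h at 30 °C. Quenched with formic acid; product quantified by LC-MS/MS peak area, indinavir internal standard.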

In assay [2] the test system is HIV-1 (H9IIIB strain). In words: Antiviral acute infection assay in cell culture (Spread). The assay is classed as cell-based. As to conditions: Human immunodeficiency virus 1, T-lymphoid, HIV-1 H9IIIB infection of MT-4 human T-lymphoid cells in 10% FBS; mean of at least two independent experiments. From the text:
Antiviral Assays in Cell Culture (“Spread”)
Acute Infection Assay (“Spread”) data were generated using HIV-1 (H9IIIB strain) infection of MT-4 human T-lymphoid cells in 10% FBS, and according to the methods disclosed by J. P. Vacca et al, “L-735,524: An orally bioavailable human immunodeficiency virus type 1 protease inhibitor,” Proc. Natl. Acad. Sci. USA, Vol. 91, pp. 4096-4100 (April 1994).

As to `CC1(CNC(=O)OC[C@@H]2CO[C@H](CCc3c(F)cncc3NC(=O)CC(c3ccc(F)cc3)c3ccc(F)cc3)CN2)CCCO1` (stereo partly drawn) [Example 166, {(3S,6R)-6-[2-(3-{[3,3-bis(4-fluoro-phenyl)propanoyl]amino}-5-fluoropyridin-4-yl)ethyl]morpholin-3-yl]methyl [(2-methyltetrahydrofuran-2-yl)methyl]carbamate], the IC50 in assay [1] is 14 nM. Further, a half-maximal effect in assay [2] (EC50) was put at 37 nM.

As to `O=C(CC(c1ccc(F)cc1)c1ccc(F)cc1)Nc1cncc(F)c1CC[C@@H]1CN[C@H](COC(=O)NC(CO)C(F)(F)F)CO1` (stereo partly drawn) [Example 167, {(3S,6R)-6-[2-(3-{[3,3-bis(4-fluoro-phenyl)propanoyl]amino}-5-fluoropyridin-4-yl)ethyl]morpholin-3-yl}methyl [2,2,2-trifluoro-1-(hydroxymethyl)ethyl] carbamate], the IC50 in assay [1] turned out to be 1.5 nM. Also, the response in assay [2] was half-maximal at 1250 nM (EC50).

In the case of `C[C@H](Oc1c(F)cccc1NC(=O)[C@@H](N)C(c1ccc(F)cc1)c1ccc(F)cc1)[C@@H]1CN[C@H](COC(=O)NCC(F)(F)F)CO1` [Example 193, 4-fluoro-β-(4-fluorophenyl)-N-(3-fluoro-2-{(1S)-1-[(2S,5S)-5-({[(2,2,2-trifluoroethyl)carbamoyl]oxy}methyl)morpholin-2-yl]ethoxy}phenyl)-L-phenylalaninamide], the IC50 in assay [1] was 120 nM. In assay [2], this molecule showed an EC50 of 1400 nM.

In the case of `N[C@H](C(=O)Nc1cccc(F)c1CC[C@@H]1CN[C@H](COC(=O)NCc2cccnc2)CO1)C(c1ccc(F)cc1)c1ccc(F)cc1` [Example 201, 4-fluoro-β-(4-fluorophenyl)-N-(3-fluoro-2-{2-[(2R,5S)-5-({[(pyridin-3-ylmethyl)carbamoyl]oxy}methyl)morpholin-2-yl]ethyl}phenyl)-L-phenylalaninamide], the IC50 in assay [1] was 28 nM. In addition, the EC50 in assay [2] was 80 nM.

Consider `CN[C@H](C(=O)Nc1cncc(F)c1CC[C@@H]1CN[C@H](COC(=O)NCC(F)(F)F)CO1)C(c1ccc(F)cc1)c1ccc(F)cc1` [Example 202, 4-fluoro-β-(4-fluorophenyl)-N-(5-fluoro-4-{2-[(2R,5S)-5-({[(2,2,2-trifluoroethyl)carbamoyl]oxy}methyl)morpholin-2-yl]ethyl}pyridin-3-yl)-Nα-methyl-L-phenylalaninamide], for which, in assay [1], the IC50 amounted to 28 nM. The molecule also came in with an EC50 in assay [2] of 65 nM.

Regarding `CNC(=O)OC[C@@H]1CO[C@H](CCc2c(F)cncc2NC(=O)[C@@H](N)C(c2ccc(F)cc2)c2ccc(F)cc2)CN1` [Example 205, 4-fluoro-N-(5-fluoro-4-{2-[(2R,5S)-5-{[(methylcarbamoyl)oxy]methyl}morpholin-2-yl]ethyl}pyridin-3-yl)-β-(4-fluorophenyl)-L-phenylalaninamide], the IC50 in assay [1] was 24 nM. In addition, a half-maximal response in assay [2] (EC50) required 58 nM.

As to `NC(=O)OC[C@@H]1CO[C@H](COc2c(F)cncc2NC(=O)[C@@H](N)C(c2ccc(F)cc2)c2ccc(F)cc2)CN1` [Example 206, N-[4-({(2S,5S)-5-[(carbamoyloxy)methyl]morpholin-2-yl}methoxy)-5-fluoropyridin-3-yl]-4-fluoro-β-(4-fluorophenyl)-L-phenylalaninamide], the IC50 in assay [1] is 21 nM. Also, the response in assay [2] was half-maximal at 120 nM (EC50).

As to `CCNC(=O)OC[C@@H]1CO[C@H](CCc2c(F)cncc2NC(=O)[C@@H](N)C(c2ccc(F)cc2)c2ccc(F)cc2)CN1` [Example 207, N-(4-{2-[(2R,5S)-5-{[(ethylcarbamoyl)oxy]methyl}morpholin-2-yl]ethyl}-5-fluoropyridin-3-yl)-4-fluoro-β-(4-fluorophenyl)-L-phenylalaninamide], the IC50 in assay [1] was 20 nM. The molecule further displayed an EC50 in assay [2] of 110 nM.

`N[C@H](C(=O)Nc1cncc(F)c1CC[C@@H]1CN[C@H](COC(=O)NCC2CCOCC2)CO1)C(c1ccc(F)cc1)c1ccc(F)cc1` [Example 208, 4-fluoro-β-(4-fluorophenyl)-N-(5-fluoro-4-{2-[(2R,5S)-5-({[(tetrahydro-2H-pyran-4-ylmethyl)carbamoyl]oxy}methyl)morpholin-2-yl]ethyl}pyridin-3-yl)-L-phenylalaninamide]: the IC50 in assay [1] is 18 nM. In assay [2], the midpoint of the response, the EC50, lay at 100 nM.

Consider `C[C@H](NC(=O)OC[C@@H]1CO[C@H](CCc2c(F)cccc2NC(=O)[C@@H](N)C(c2ccc(F)cc2)c2ccc(F)cc2)CN1)c1ccc(F)cc1` [Example 212, 4-fluoro-N-[3-fluoro-2-(2-{(2R,5S)-5-[({[(1S)-1-(4-fluorophenyl)ethyl]carbamoyl}oxy)methyl]morpholin-2-yl}ethyl)phenyl]-β-(4-fluorophenyl)-L-phenylalaninamide], for which, in assay [1], the IC50 came to 11 nM. The concentration giving a half-maximal response (EC50) in assay [2] came to 810 nM.

`N[C@H](C(=O)Nc1cncc(F)c1CC[C@@H]1CN[C@H](COC(=O)NCC2CCCCO2)CO1)C(c1ccc(F)cc1)c1ccc(F)cc1` (stereo partly drawn) [Example 213, 4-fluoro-β-(4-fluorophenyl)-N-(5-fluoro-4-{2-[(2R,5S)-5-({[(tetrahydro-2H-pyran-2-ylmethyl)carbamoyl]oxy}methyl)morpholin-2-yl]ethyl}pyridin-3-yl)-L-phenylalaninamide]: the IC50 in assay [1] was found to be 6.1 nM. For the same molecule, in assay [2], the EC50 came to 61 nM.

For `N[C@H](C(=O)Nc1cncc(F)c1CC[C@@H]1CN[C@H](COC(=O)NC2(c3ccccn3)CC2)CO1)C(c1ccc(F)cc1)c1ccc(F)cc1` [Example 214, 4-fluoro-β-(4-fluorophenyl)-N-(5-fluoro-4-{2-[(2R,5S)-5-({[(1-pyridin-2-ylcyclopropyl)carbamoyl]oxy}methyl)morpholin-2-yl]ethyl}pyridin-3-yl)-L-phenylalaninamide], the IC50 in assay [1] stood at 5.2 nM. For the same molecule, the EC50 in assay [2] turned out to be 58 nM.

As to `N[C@H](C(=O)Nc1cncc(F)c1CC[C@@H]1CN[C@H](COC(=O)NC[C@H]2CCCO2)CO1)C(c1ccc(F)cc1)c1ccc(F)cc1` [Example 215, 4-fluoro-β-(4-fluorophenyl)-N-[5-fluoro-4-(2-{(2R,5S)-5-[({[(2R)-tetrahydrofuran-2-ylmethyl]carbamoyl}oxy)methyl]morpholin-2-yl}ethyl)pyridin-3-yl]-L-phenylalaninamide], the IC50 in assay [1] was determined as 3.5 nM. The concentration for a half-maximal effect (EC50) in assay [2] is 25 nM.

`CC[C@@H](NC(=O)OC[C@@H]1CO[C@H](CCc2c(F)cncc2NC(=O)[C@@H](N)C(c2ccc(F)cc2)c2ccc(F)cc2)CN1)C(F)(F)F` [Example 216]: the IC50 in assay [1] turned out to be 3.3 nM. This molecule also returned a half-maximal effective concentration (EC50) in assay [2] of 2000 nM.

On to `N[C@H](C(=O)Nc1cncc(F)c1CC[C@@H]1CN[C@H](COC(=O)NC2CC(F)(F)C2)CO1)C(c1ccc(F)cc1)c1ccc(F)cc1` [Example 217, N-(4-{2-[(2R,5S)-5-({[(3,3-difluorocyclobutyl)carbamoyl]oxy}methyl)morpholin-2-yl]ethyl}-5-fluoropyridin-3-yl)-4-fluoro-β-(4-fluorophenyl)-L-phenylalaninamide], for which, in assay [1], the IC50 turned out to be 2.7 nM. Also, the response in assay [2] was half-maximal at 94 nM (EC50).

Turning to `N[C@H](C(=O)Nc1cncc(F)c1CC[C@@H]1CN[C@H](COC(=O)NCC(F)(F)F)CO1)[C@H](c1ccc(F)cc1)c1ccc(Cl)c(F)c1` [Example 221, (βR)-β-(4-chloro-3-fluorophenyl)-4-fluoro-N-(5-fluoro-4-{2-[(2R,5S)-5-({[(2,2,2-trifluoro-ethyl)carbamoyl]oxy}methyl)morpholin-2-yl]ethyl}pyridin-3-yl)-L-phenylalaninamide], in assay [1], the IC50 came to 1.1 nM. In addition, in assay [2], the EC50 turned out to be 22 nM.

As a reminder, the EC50 is the concentration that produces a half-maximal response.
